Numbering of substitutions follows the chain as printed. In names and notes the source's numbering stands.
Key:
PglY (His6–PglY) = target: T1, PglY (His6–PglY) (Streptomyces coelicolor, UniProt O86682); assay: inhibition of ATP hydrolysis, Pi release, malachite green; assay type: biochemical; conditions: 1–3 mM ADP-NP against 1–3 mM ATP; 30 °C, pH 8.0, 10 mM MgCl2
T1 construct: ~160 kDa band, MALDI-TOF identified; Walker A GSFGSGKS at 75–82
T1 sequence (O86682 1-1294): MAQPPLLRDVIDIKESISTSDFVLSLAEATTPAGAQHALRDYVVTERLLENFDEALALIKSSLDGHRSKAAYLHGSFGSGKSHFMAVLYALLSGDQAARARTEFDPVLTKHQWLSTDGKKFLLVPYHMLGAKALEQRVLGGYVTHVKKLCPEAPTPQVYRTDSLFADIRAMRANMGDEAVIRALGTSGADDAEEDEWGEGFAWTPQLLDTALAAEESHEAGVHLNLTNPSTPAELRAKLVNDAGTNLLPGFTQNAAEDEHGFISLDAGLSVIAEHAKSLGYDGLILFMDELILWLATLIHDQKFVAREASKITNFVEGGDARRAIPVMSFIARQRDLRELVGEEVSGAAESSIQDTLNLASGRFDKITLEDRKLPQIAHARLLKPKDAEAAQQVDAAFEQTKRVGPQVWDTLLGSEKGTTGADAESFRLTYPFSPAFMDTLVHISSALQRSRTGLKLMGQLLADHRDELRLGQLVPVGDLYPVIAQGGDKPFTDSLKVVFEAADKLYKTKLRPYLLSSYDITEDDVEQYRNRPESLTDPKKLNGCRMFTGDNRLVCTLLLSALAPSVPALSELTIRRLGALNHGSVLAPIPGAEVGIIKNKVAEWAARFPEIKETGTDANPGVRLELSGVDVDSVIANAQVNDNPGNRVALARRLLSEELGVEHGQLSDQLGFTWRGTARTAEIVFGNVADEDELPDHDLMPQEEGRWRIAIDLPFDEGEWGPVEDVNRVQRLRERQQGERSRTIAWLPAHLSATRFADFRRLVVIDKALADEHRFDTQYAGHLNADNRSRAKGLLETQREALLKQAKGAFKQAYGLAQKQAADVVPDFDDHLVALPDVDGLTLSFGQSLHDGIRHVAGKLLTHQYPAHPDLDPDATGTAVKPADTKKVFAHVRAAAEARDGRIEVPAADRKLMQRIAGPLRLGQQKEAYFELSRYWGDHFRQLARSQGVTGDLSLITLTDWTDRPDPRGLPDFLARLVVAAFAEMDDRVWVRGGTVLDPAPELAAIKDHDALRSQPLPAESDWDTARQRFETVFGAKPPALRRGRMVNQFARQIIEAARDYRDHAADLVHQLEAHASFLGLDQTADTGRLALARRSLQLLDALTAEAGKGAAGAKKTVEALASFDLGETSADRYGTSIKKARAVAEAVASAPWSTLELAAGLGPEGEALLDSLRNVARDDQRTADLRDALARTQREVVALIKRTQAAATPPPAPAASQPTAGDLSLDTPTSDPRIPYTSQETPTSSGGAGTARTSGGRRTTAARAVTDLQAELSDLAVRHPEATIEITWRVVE

PglX (PglX–His6) = target: T2, PglX (PglX–His6) (Streptomyces coelicolor, UniProt Q8CJM2); assay: 3H-methyl incorporation into DNA, scintillation counting; assay type: biochemical; conditions: 12 μM labelled compound, phage ϕC31 DNA co-substrate, 1 mM EDTA, pH 7.5, 30 °C; partially purified enzyme
T2 construct: NPPY motif at 378–381
T2 sequence (Q8CJM2 1-1210): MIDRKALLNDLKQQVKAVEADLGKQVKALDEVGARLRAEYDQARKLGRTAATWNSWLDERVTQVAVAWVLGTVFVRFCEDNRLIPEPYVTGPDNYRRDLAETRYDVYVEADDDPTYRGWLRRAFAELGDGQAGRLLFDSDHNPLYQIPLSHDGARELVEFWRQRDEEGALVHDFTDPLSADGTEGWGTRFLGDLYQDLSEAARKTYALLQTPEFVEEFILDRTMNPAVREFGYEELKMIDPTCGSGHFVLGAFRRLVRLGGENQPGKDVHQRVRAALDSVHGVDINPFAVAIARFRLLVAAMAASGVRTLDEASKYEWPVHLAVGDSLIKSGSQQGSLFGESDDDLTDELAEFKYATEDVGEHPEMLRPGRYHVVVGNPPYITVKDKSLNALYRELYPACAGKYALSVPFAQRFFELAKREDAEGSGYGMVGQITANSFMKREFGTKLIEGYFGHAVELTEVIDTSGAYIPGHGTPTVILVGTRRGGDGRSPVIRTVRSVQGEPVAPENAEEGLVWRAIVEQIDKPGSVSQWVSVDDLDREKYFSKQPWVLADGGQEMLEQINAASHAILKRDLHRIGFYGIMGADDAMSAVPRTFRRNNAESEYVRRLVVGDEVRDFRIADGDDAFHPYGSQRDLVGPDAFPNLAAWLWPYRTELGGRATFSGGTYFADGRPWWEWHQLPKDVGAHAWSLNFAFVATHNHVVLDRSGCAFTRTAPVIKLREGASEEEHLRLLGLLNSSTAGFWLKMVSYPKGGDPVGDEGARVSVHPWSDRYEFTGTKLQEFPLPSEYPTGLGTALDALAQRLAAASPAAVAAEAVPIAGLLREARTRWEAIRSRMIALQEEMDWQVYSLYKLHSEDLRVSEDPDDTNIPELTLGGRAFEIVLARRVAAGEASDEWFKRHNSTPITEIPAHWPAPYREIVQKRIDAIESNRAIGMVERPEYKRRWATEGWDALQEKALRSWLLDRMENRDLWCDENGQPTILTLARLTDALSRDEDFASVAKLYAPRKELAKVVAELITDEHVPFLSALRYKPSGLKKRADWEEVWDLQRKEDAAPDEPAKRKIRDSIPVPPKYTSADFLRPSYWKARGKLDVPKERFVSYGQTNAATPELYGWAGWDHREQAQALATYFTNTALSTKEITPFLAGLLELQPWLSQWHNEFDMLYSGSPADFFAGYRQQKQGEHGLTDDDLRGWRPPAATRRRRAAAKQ

[1] = substrate: Nc1ncnc2c1ncn2[C@@H]1O[C@H](COP(=O)(O)OP(=O)(O)OP(=O)(O)O)[C@@H](O)[C@H]1O; assay: Pi release, malachite green; assay type: biochemical, Streptomyces coelicolor; conditions: 30 °C, 40 mM HEPES pH 8.0, 10 mM MgCl2, 10 mM DTT, 0.1 mg/ml BSA

Nc1ncnc2c1ncn2[C@@H]1O[C@H](COP(=O)(O)OP(=O)(O)NP(=O)(O)O)[C@@H](O)[C@H]1O [ADP-NP]
inhibition of ATP hydrolysis, Pi release, malachite green (PglY (His6–PglY)): severely inhibited rate of hydrolysis of ATP, indicative of ADP-NP binding and inhibition of activity

C[S+](CC[C@H](N)C(=O)O)C[C@H]1O[C@@H](n2cnc3c(N)ncnc32)[C@H](O)[C@@H]1O (stereo partly shown) [AdoMet]
3H-methyl incorporation into DNA, scintillation counting (PglX (PglX–His6)): incorporation of label into TCA precipitable material was dependent on DNA addition

B1: PglY (His6–PglY) (Streptomyces coelicolor A3(2)) (protein)
chain: T1 sequence (O86682 1-1294)
notes: ~160 kDa band, MALDI-TOF identified; Walker A GSFGSGKS at 75–82
Km [1]: 0.5 mM

B2: PglY (His6–PglY) (Streptomyces coelicolor A3(2); K81A/S82A) (protein)
chain: T1 sequence (O86682 1-1294) with K81A, S82A
notes: as for B1
Km ([1]; Walker A double mutant): 100 mM

Source: PMC4365076, “The phage growth limitation system in Streptomyces coelicolor A(3)2 is a toxin/antitoxin system, comprising enzymes with DNA methyltransferase, protein kinase and ATPase activity” (Virology, 2015)
